Activity and MIC data for 4 molecules are collected here from ChEMBL document CHEMBL1157225, “Highly N-methylated linear peptides produced by an atypical sponge-derived Acremonium sp” (2006).

Each structure is given as a SMILES string. In brackets after ≈: the same amount, converted by molar mass. Where a SMILES comes first, the peptide text is derived from it. [ ]: non-standard residue; d: D form. The star is where a group is joined. X1 = CC(C)C[C@@H](C[N+]1=C2CCCN2CCC1)N*; Pip = O=C(O)[C@@H]1CCCCN1; Iva = CC[C@](C)(N)C(=O)O; Aib = CC(C)(N)C(=O)O; βAla = NCCC(=O)O

Experiment [1] has as its system L1210. The experiment is described as follows: Cytotoxicity against mouse L1210 cells relative to efrapeptin G. The class given is functional.
For experiment [2], the system named is Staphylococcus epidermidis. The experiment is described as follows: Antimicrobial activity against Staphylococcus epidermidis. The class given is functional.
The mark [3] stands for this setting: Staphylococcus epidermidis, read-out: MIC.

The MIC is the smallest concentration in the dilution series that meets the test's criterion for growth inhibition. `CC[C@H](C)[C@H](NC(=O)[C@H](C(C)C)N(C)C(=O)[C@H](CC(C)C)N(C)C(=O)[C@@H](NC(=O)[C@@H](CCC(N)=O)NC(C)=O)C(C)C)C(=O)N(C)[C@H](C(=O)N(C)[C@H](C(=O)N(C)[C@H](C(=O)O)[C@@H](C)CC)[C@@H](C)CC)[C@@H](C)CC` gave an Activity in experiment [1] of 1. Also, in experiment [2] (setting [3]), the MIC is above 400 µg/mL.
Regarding `CC[C@H](C)[C@H](NC(=O)[C@H](CC(C)C)N(C)C(=O)[C@@H](NC(=O)[C@@H](CCC(N)=O)NC(C)=O)[C@@H](C)CC)C(=O)N(C)[C@H](C(=O)N(C)[C@H](C(=O)N(C)[C@H](C(=O)N(C)[C@H](C(=O)O)[C@@H](C)CC)[C@@H](C)CC)[C@@H](C)CC)C(C)C`, the figures for the MIC in experiment [2] and in experiment [2] (setting [3]) were 50 µg/mL (≈ 48.2 µM) and 25 µg/mL (≈ 24.1 µM), respectively.
In experiment [1], `CC[C@](C)(NC(=O)[C@H](CC(C)C)NC(=O)[C@H](C)NC(=O)C(C)(C)NC(=O)[C@@H]1CCCCN1C(=O)C(C)(C)NC(=O)C(C)(C)NC(=O)CNC(=O)CCNC(=O)[C@H](CC(C)C)NC(=O)C(C)(C)NC(=O)[C@](C)(CC)NC(=O)[C@@H]1CCCCN1C(=O)C(C)(C)NC(=O)[C@@H]1CCCCN1C(C)=O)C(=O)N[C@@H](CC(C)C)C[N+]1=C2CCCN2CCC1` [EFRAPEPTIN G] (Ac-[Pip][Aib][Pip][Iva][Aib]L[βAla]G[Aib][Aib][Pip][Aib]AL[Iva]-X1) showed an Activity of 3300. For the same molecule, in experiment [2] (setting [3]), the MIC turned out to be 80 µg/mL.
In the case of `CN[C@H](CC(C)C)C(=O)N[C@H]1C(=O)N[C@@H](CC(N)=O)C(=O)N[C@H]2C(=O)N[C@H]3C(=O)N[C@H](C(=O)N[C@H](C(=O)O)c4cc(O)cc(O)c4-c4cc3ccc4O)[C@H](O)c3ccc(c(Cl)c3)Oc3cc2cc(c3O[C@@H]2O[C@H](CO)[C@@H](O)[C@H](O)[C@H]2O[C@H]2C[C@](C)(N)[C@H](O)[C@H](C)O2)Oc2ccc(cc2Cl)[C@H]1O` [VANCOMYCIN], the minimum inhibitory concentration (MIC) in experiment [2] (setting [3]) amounted to 0.63 µg/mL (≈ 0.435 µM).
